The results in this text go back to US12661397B2, “Adjuvant comprising a glycoarchaeol and an immunostimulant” (priority 2021, dated 2026).

In assay [1] the test system is SARS-CoV-2 spike protein (SmT1). Put plainly: SARS-CoV-2 Spike-specific IgG ELISA in hamsters. The note with it: 3 μg SmT1 i.m. Day 0 only, serum Day 34 (FIG. 15 lower). Format: in vivo, Syrian Golden hamsters. Background: An ELISA detects its analyte on a solid surface through an enzyme-linked reagent.
Another assay deals with OVA. Put plainly: Anti-OVA antibody ELISA of mouse serum. The format is in vivo. The conditions noted are these: OVA-immunized mice, Day 28; 100 = limit of detection (FIG. 5). From the text: Serum of mice immunized with OVA antigen alone (None) or formulated with SLA archaeosomes, other adjuvants (Poly(I:C), Resiquimod (R848), CpG, MPLA, QS-21, Pam3CSK4) or SLA in combination with other adjuvants was collected on Day 28 (7 days post 2nd immunization by intramuscular route) and analyzed for antigen-specific IgG antibodies by ELISA. Grouped data is presented as geometric mean titer+95% Confidence Interval (n=10/group).
Serum of mice immunized with OVA antigen alone (none) or formulated with SLA archaeosomes, other adjuvants (Poly(I:C), Resiquimod (R848), CpG, MPLA, QS-21, Pam3CSK4) or SLA in combination with other adjuvants was collected on Day 28 (7 days post 2nd immunization) and analyzed for antigen-specific IgG2c antibodies by ELISA. Grouped data is presented as geometric mean titer+95% Confidence Interval (n=10/group).
The levels of anti-OVA or anti-HBsAg antibodies (Abs) in mouse serum were quantified by ELISA using 96-well high-binding ELISA plates (Thermo Fisher Scientific, Waltham, MA, USA) coated overnight at room temperature (RT) with 100 μL of 10 μg/mL OVA (Sigma-Aldrich, St. Louis, MO, USA) in PBS or 1 μg/mL HBsAg (Fitzgerald Industries International) in 16 mM sodium carbonate/34 mM sodium bicarbonate buffer, pH 9.6 (Sigma-Aldrich). […] Bound IgG Abs were detected spectrophotometrically at 450 nm. […]

`CC(C)CCCC(C)CCCC(C)CCCC(C)CCOC[C@@H](CO[C@@H]1O[C@H](CO)[C@@H](O[C@@H]2O[C@H](COS(=O)(=O)O)[C@H](O)[C@H](O)[C@H]2O)[C@H](O)[C@H]1O)OCCC(C)CCCC(C)CCCC(C)CCCC(C)C` (stereo partly drawn) [SLA, 6′-sulfate-β-D-Galp-(1,4)-β-D-Glcp-(1,1)-archaeol]: the “Anti-spike IgG GMT, prime only regimen” value in assay [1] is 6,050. In addition, the “anti-OVA IgG2c titer” value with OVA is recorded as 100.

“polyinosinic-polycytidylic acid [Poly(I:C), reference compound]”: in the assay with OVA, the “anti-OVA IgG2c titer” value stood at 5420.
